*1 amine or outer side, *2 acyl side, *3 side chain or, on linkers, in order; H or OH if unused. Where a SMILES comes first, the peptide text is derived from it. Side-chain parts run from the residue outwards. [ ]: non-standard residue; d: D form. The star is where a group is joined. ξ: configuration not given here. Pro(4R-OPh) = O=C(O)[C@@H]1C[C@@H](Oc2ccccc2)CN1; CH2(1-naphthyl) = c1ccc2c(C*)cccc2c1; NH(1-naphthyl) = c1ccc2c(N*)cccc2c1; Adipoyl = O=C(CCCCC(=O)[*:2])[*:1]; 1Naphthoyl = O=C(c1cccc2ccccc12)*; 2Naphthoyl = O=C(c1ccc2ccccc2c1)*; Pyrazinecarbonyl = O=C(c1cnccn1)*; Hyp = O=C(O)[C@@H]1C[C@@H](O)CN1; ξAla(CF3) = NC(CC(F)(F)F)C(=O)O; Nva = CCC[C@H](N)C(=O)O; X1 = c1ccc2cc(C*)ccc2c1; X2 = Clc1ccc(Cl)c(N*)c1; X4 = COc1ccc(OC)c(N*)c1; 2Abz = Nc1ccccc1C(=O)O; Abu = CC[C@H](N)C(=O)O; X3 = c1ccc2c(c1)CCCN2*; Aib = CC(C)(N)C(=O)O; CO = O=C([*:1])[*:2]; Bz = O=C(c1ccccc1)*; NHPh = c1ccc(N*)cc1; Bn = c1ccc(C*)cc1 Where only a bound is given, the exact number is not on record here.

Hepatitis C virus serine protease, NS3/NS4A (Hepatitis C virus, UniProt A3EZI9+D2K2A8), sequence (D2K2A8 whole entry): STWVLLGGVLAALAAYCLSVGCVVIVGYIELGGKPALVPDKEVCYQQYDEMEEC
Hepatitis C virus serine protease, NS3/NS4A (Hepatitis C virus, UniProt A3EZI9+D2K2A8), sequence (A3EZI9 whole entry): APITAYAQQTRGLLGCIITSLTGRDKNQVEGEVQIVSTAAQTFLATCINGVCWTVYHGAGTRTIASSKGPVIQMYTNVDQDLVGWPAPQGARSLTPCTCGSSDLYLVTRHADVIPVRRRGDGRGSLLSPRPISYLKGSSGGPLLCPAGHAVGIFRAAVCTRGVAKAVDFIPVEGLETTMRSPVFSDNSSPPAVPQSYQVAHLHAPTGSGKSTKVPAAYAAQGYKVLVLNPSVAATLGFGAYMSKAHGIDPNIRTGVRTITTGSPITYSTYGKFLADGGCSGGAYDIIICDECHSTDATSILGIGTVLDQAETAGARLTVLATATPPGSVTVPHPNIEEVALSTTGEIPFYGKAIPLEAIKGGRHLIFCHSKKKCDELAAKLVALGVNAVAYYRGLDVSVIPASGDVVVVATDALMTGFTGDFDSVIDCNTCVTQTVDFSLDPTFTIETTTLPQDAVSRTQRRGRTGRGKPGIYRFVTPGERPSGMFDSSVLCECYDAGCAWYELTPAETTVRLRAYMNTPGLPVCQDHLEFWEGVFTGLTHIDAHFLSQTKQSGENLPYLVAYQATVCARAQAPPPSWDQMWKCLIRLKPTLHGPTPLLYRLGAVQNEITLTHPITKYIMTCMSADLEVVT

One experiment concerns the target Hepatitis C virus serine protease, NS3/NS4A (Hepatitis C virus, UniProt A3EZI9+D2K2A8). Put plainly: (§1) Inhibition of HCV (Hepatitis C Virus) NS3-4A protease. Type of experiment: protein-complex assay, Hepacivirus hominis.
One may read the Ki as a dissociation constant, usually derived from enzyme kinetics or from competition with a known ligand. Compound `CC(C)[C@H](NC(=O)c1cnccn1)C(=O)N[C@H](C(=O)N1C[C@H](OCc2ccccc2)C[C@H]1C(=O)NC(C)(C)C=O)C(C)C` (Pyrazinecarbonyl-VV[Hyp](Bn)[Aib]-aldehyde) registered a Ki above 50 µM.
In turn, `CCC[C@@H](C=O)NC(=O)[C@@H]1C[C@@H](OCc2ccccc2)CN1C(=O)[C@@H](NC(=O)[C@@H](NC(=O)c1cnccn1)C(C)C)C(C)C` (Pyrazinecarbonyl-VV[Hyp](Bn)[Nva]-aldehyde) had a Ki of 3.8 µM. This lies in the single-digit micromolar range.
`CC(C)[C@H](NC(=O)c1cnccn1)C(=O)N[C@H](C(=O)N1C[C@H](OCc2ccccc2)C[C@H]1C(=O)NC(C=O)CC(F)(F)F)C(C)C` (some centres not stated) (Pyrazinecarbonyl-VV[Hyp](Bn)[ξAla(CF3)]-aldehyde) returned a Ki of 3.1 µM.
As for `CC[C@@H](C=O)NC(=O)[C@@H]1C[C@@H](OCc2ccccc2)CN1C(=O)[C@@H](NC(=O)[C@@H](NC(=O)[C@H](CC(=O)O)NC(=O)[C@H](CCC(=O)O)NC(C)=O)C(C)C)C(C)C` (Ac-EDVV[Hyp](Bn)[Abu]-aldehyde), the affinity corresponds to a Ki of 0.89 µM.
On the same count and under the same terms, next, `COC[C@@H](C=O)NC(=O)[C@@H]1C[C@@H](OCc2ccccc2)CN1C(=O)[C@@H](NC(=O)[C@@H](NC(=O)c1cnccn1)C(C)C)C(C)C` (Pyrazinecarbonyl-VV[Hyp](Bn)S(Me)-aldehyde): above 50 µM; `CC[C@@H](C=O)NC(=O)[C@@H]1C[C@@H](OCc2ccccc2)CN1C(=O)[C@@H](NC(=O)[C@@H](NC(=O)c1cnccn1)C(C)C)C(C)C` (Pyrazinecarbonyl-VV[Hyp](Bn)[Abu]-aldehyde): 12 µM.

In another experiment the target is Hepatitis C virus serine protease, NS3/NS4A (Hepatitis C virus, UniProt D2K2A8+A3EZI9). The description is as §1. The class given is protein-complex assay, Hepacivirus hominis.
Hepatitis C virus serine protease, NS3/NS4A (Hepatitis C virus, UniProt D2K2A8+A3EZI9), sequence (D2K2A8 whole entry): as the sequence (D2K2A8 whole entry) above
Hepatitis C virus serine protease, NS3/NS4A (Hepatitis C virus, UniProt D2K2A8+A3EZI9), sequence (A3EZI9 whole entry): as the sequence (A3EZI9 whole entry) above
As to `CC[C@@H](C=O)NC(=O)[C@@H]1C[C@@H](OCc2ccc3ccccc3c2)CN1C(=O)[C@@H](NC(=O)[C@@H](NC(=O)c1cnccn1)C(C)C)C(C)C` (Pyrazinecarbonyl-VV[Hyp](X1)[Abu]-aldehyde), the affinity, expressed as Ki, was 1.7 µM.
Regarding `CC[C@@H](C=O)NC(=O)[C@@H]1C[C@@H](OCc2cccc3ccccc23)CN1C(=O)[C@@H](NC(=O)[C@@H](NC(=O)c1cnccn1)C(C)C)C(C)C` (Pyrazinecarbonyl-VV[Hyp](CH2(1-naphthyl))[Abu]-aldehyde), the Ki amounted to 2.9 µM.
`CC[C@@H](C=O)NC(=O)[C@@H]1C[C@@H](OC(=O)N2CCCc3ccccc32)CN1C(=O)[C@@H](NC(=O)[C@@H](NC(=O)c1cnccn1)C(C)C)C(C)C` (Pyrazinecarbonyl-VV[Hyp]([CO-X3])[Abu]-aldehyde): the Ki amounted to 0.89 µM.
The compound `CC[C@@H](C=O)NC(=O)[C@@H]1C[C@@H](Oc2ccccc2)CN1C(=O)[C@@H](NC(=O)[C@@H](NC(=O)c1cnccn1)C(C)C)C(C)C` (Pyrazinecarbonyl-VV[Pro(4R-OPh)][Abu]-aldehyde) came in with a Ki of 3.9 µM.
Regarding `CC[C@@H](C=O)NC(=O)[C@@H]1C[C@@H](OC(=O)Nc2ccccc2C(=O)OC)CN1C(=O)[C@@H](NC(=O)[C@@H](NC(=O)c1cnccn1)C(C)C)C(C)C` (Pyrazinecarbonyl-VV[Hyp]([CO-2Abz-OMe])[Abu]-aldehyde), the Ki came out at 2.5 µM.
For the compound `CC[C@@H](C=O)NC(=O)[C@@H]1C[C@@H](OC(=O)c2ccc3ccccc3c2)CN1C(=O)[C@@H](NC(=O)[C@@H](NC(=O)CCCCC(=O)O)C(C)C)C(C)C` (Adipoyl-VV[Hyp](2Naphthoyl)[Abu]-aldehyde), the Ki was determined as 0.11 µM.
For the compound `CC[C@@H](C=O)NC(=O)[C@@H]1C[C@@H](OC(=O)c2ccc3ccccc3c2)CN1C(=O)[C@@H](NC(=O)[C@@H](NC(=O)c1cnccn1)C(C)C)C(C)C` (Pyrazinecarbonyl-VV[Hyp](2Naphthoyl)[Abu]-aldehyde), the affinity corresponds to a Ki of 0.4 µM.
In turn, `CC[C@@H](C=O)NC(=O)[C@@H]1C[C@@H](Oc2cccc3cccnc23)CN1C(=O)[C@@H](NC(=O)[C@@H](NC(=O)c1cnccn1)C(C)C)C(C)C` had a Ki above 50 µM.
In the case of `CC[C@@H](C=O)NC(=O)[C@@H]1C[C@@H](OC(=O)c2cccc3ccccc23)CN1C(=O)[C@@H](NC(=O)[C@@H](NC(=O)c1cnccn1)C(C)C)C(C)C` (Pyrazinecarbonyl-VV[Hyp](1Naphthoyl)[Abu]-aldehyde), the affinity corresponds to a Ki of 1.9 µM. That is a single-digit micromolar value.
The compound `CC[C@@H](C=O)NC(=O)[C@@H]1C[C@@H](OC(=O)Nc2cc(Cl)ccc2Cl)CN1C(=O)[C@@H](NC(=O)[C@@H](NC(=O)c1cnccn1)C(C)C)C(C)C` (Pyrazinecarbonyl-VV[Hyp]([CO-X2])[Abu]-aldehyde) showed a Ki of 3.2 µM.
`CC[C@@H](C=O)NC(=O)[C@@H]1C[C@@H](OC(=O)c2ccccc2)CN1C(=O)[C@@H](NC(=O)[C@@H](NC(=O)c1cnccn1)C(C)C)C(C)C` (Pyrazinecarbonyl-VV[Hyp](Bz)[Abu]-aldehyde) had a Ki of 5.8 µM.
In the case of `CC[C@@H](C=O)NC(=O)[C@@H]1C[C@@H](Oc2ccc3ccccc3c2)CN1C(=O)[C@@H](NC(=O)[C@@H](NC(=O)c1cnccn1)C(C)C)C(C)C`, the Ki is 7.4 µM.
The compound `CC[C@@H](C=O)NC(=O)[C@@H]1C[C@@H](OC(=O)Nc2cccc3ccccc23)CN1C(=O)[C@@H](NC(=O)[C@@H](NC(=O)c1cnccn1)C(C)C)C(C)C` (Pyrazinecarbonyl-VV[Hyp]([CO-NH(1-naphthyl)])[Abu]-aldehyde) yielded a Ki of 12.5 µM. This Ki is about 1.7-fold higher than that of the compound before.
On the same count and under the same terms, under `CC[C@@H](C=O)NC(=O)[C@@H]1C[C@@H](OC(=O)Nc2cc(OC)ccc2OC)CN1C(=O)[C@@H](NC(=O)[C@@H](NC(=O)c1cnccn1)C(C)C)C(C)C` (Pyrazinecarbonyl-VV[Hyp]([CO-X4])[Abu]-aldehyde) stands 7.9 µM.
Still for that read-out and setting: next, `CC[C@@H](C=O)NC(=O)[C@@H]1C[C@@H](Oc2cccc3ccccc23)CN1C(=O)[C@@H](NC(=O)[C@@H](NC(=O)c1cnccn1)C(C)C)C(C)C`: 2.1 µM; `CC[C@@H](C=O)NC(=O)[C@@H]1C[C@@H](OC(=O)Nc2ccccc2)CN1C(=O)[C@@H](NC(=O)[C@@H](NC(=O)c1cnccn1)C(C)C)C(C)C` (Pyrazinecarbonyl-VV[Hyp]([CO-NHPh])[Abu]-aldehyde): 22.3 µM.

The values are drawn from ChEMBL document CHEMBL1136438, “Inhibitors of hepatitis C virus NS3.4A protease 1. Non-charged tetrapeptide variants” (Bioorg Med Chem Lett, 2003).
